Measurements: patent US8163776B2, “Method of immunomodulation using thione-forming disulfides” (Grassetti family Trust, priority 2001, dated 2012)
Where “and” joins values, the source holds several entries; their conditions need not be identical. Equal values may be shown once.

Key:
splenocytes = test: Total splenocyte (lymphocyte) count, trypan blue exclusion; format: in vivo, BALB/c mice; settings: for Total Lymphocyte Counts: spleen
Method: Splenocytes were isolated by obtaining spleen from the sacrificed mice on the same experimental day, homogenizing the spleen using a 50-M mesh screen, and suspending the homogenate in 25 ml of RPMI 1640. The splenocyte suspension was washed and then spun at 1200 rpm for 5 minutes. The red blood cells were lysed by an osmotic choc with distilled water. The splenocyte suspension was washed and spun at 1200 rpm for 5 minutes. The splenocytes were suspended in complete RPMI media (90% RPMI 1640, 10% FBS, antibiotics 1×, HEPES 1 mM) and the suspension was filtered through cotton wool. Cells were counted using trypan blue exclusion method. Total splenocyte count was recorded (Table 7). Cells were kept on ice and diluted to the appropriate concentration for the corresponding experimental procedures.
To count splenocytes, two chambers of the hemacytometer were counted and the mean was calculated. The total splenocyte count was calculated by the following formula: Total splenocyte count=mean count×10 (dilution factor)×10^4×suspension volume. The mean was calculated for each control and treated group. Student's T test was performed between the control group and the treated group. The p value was calculated for statistical significance. Following spleen homogenization, the total number of splenocytes isolated was counted using a standard trypan blue method which discriminates between viable and non viable cells.

lymphocytes = test: Mitogenic proliferation of splenocytes (3H-thymidine incorporation); format: in vivo, BALB/c mice
Method: Splenocytes were diluted to a concentration of 1×10^6 cells/ml in complete RPMI media. Aliquots of 100 μl were transferred into a 96 well flat bottom plate. Mitogen stock solutions were prepared at a concentration of 1 mg/ml in D-PBS and frozen at −20° C. Working solution were prepared freshly in complete RPMI media at the following concentration (10×): 500 μg/ml PHA, 50 μg/ml concanavalin A (con A), and 50 μg/ml LPS. Aliquots of 100 μl of each mitogens were transferred in triplicate in the corresponding wells. Final concentration (1×) in each well was 50 μg/ml PHA, 5 μg/ml con A, and 5 μg/ml LPS. For negative control, 100 μl of complete RPMI media was added in triplicate, instead of the mitogens. Cells were incubated for a total of 72 hours in 37° C., 5% CO2, humidified incubator. Twenty hours before the end of the incubation, 1 μCi per well of ^3H-thymidine was added to each well. Cells were harvested using a Harvester® 96 from Tomtec. Filters were transferred into scintillation vials. Scintillation liquid, 4 ml was added to each vial. Radioactivity was counted using Beckman LS-6500 Beta counter. The results were expressed in CPM. The mean and standard deviation of triplicate samples are calculated. Results are expressed as stimulation index (SI) as follows:
[formula] • where experimental value=with mitogens (PHA, ConA and LPS) and control value=with RPMI. For each mitogen, results were compared and Student's T test was performed between the control group and the treated group. The p value was calculated for statistical significance.
The lymphoproliferative response is a widely studied function of T and B lymphocytes. Three different mitogens with different specificity for different lymphocyte subsets were used. PHA and ConA are standard mitogens that stimulate mice T cells and LPS is a mitogen which stimulates B cells. Results are expressed in proliferation capacity (Table 10 and FIGS. 5 and 6). […] This potential may present some therapeutic application against some immune dysfunctions where the lymphoproliferative response is impaired (e.g., viral infections).

[1] = 30 days on CPDS diet vs normal diet
[2] = 30 days on CPDS diet, Mean ± S.D.
[3] = Group 6, 6 days on CPDS diet, Mean ± S.D.

O=C(O)c1ccc(SSc2ccc(C(=O)O)cn2)nc1 [CPDS, 6,6′-dithiodinicotinic acid]
Total Lymphocyte Counts, variation (splenocytes; Group 2, 30 days on CPDS diet vs group 1 (normal diet)): −15.58% | Total Lymphocyte Counts (splenocytes; Group 2, 30 days on CPDS diet, group Mean): 5.01 × 10^7 | Total Lymphocyte Counts (splenocytes; Group 2, 30 days on CPDS diet, individual mice): 3.94 × 10^7 and 5.18 × 10^7 and 6.03 × 10^7 and 4.47 × 10^7 and 5.54 × 10^7 and 5.91 × 10^7 and 4.77 × 10^7 and 4.25 × 10^7 | Total Lymphocyte Counts, variation (splenocytes; Group 6, 6 days on CPDS diet vs group 5 (normal diet)): −30.97% | Total Lymphocyte Counts (splenocytes; Group 6, 6 days on CPDS diet, group Mean): 4.16 × 10^7 | Total Lymphocyte Counts (splenocytes; Group 6, 6 days on CPDS diet, individual mice): 3.08 × 10^7 and 4.58 × 10^7 | Necrosis or loss of splenocyte viability (splenocytes; after 6 and 30 days CPDS diet): No signs of necrosis or loss of splenocyte viability were observed | Mitogenic Proliferation (SI), LPS, effect of CPDS diet (lymphocytes; 6 days, n=3): No effect | Mitogenic Proliferation (SI), PHA, effect of CPDS diet (lymphocytes; 6 days, n=3): No effect | Mitogenic Proliferation, LPS (lymphocytes; 30 days on CPDS diet (samples G2-1 to G2-8), individual mice, 5 μg/ml LPS): 3799.3 and 1426.0 and 4760.0 and 4304.7 and 842.0 and 1407.3 and 2438.0 and 2039.3 | Mitogenic Proliferation, CON A (lymphocytes; 30 days on CPDS diet (samples G2-1 to G2-8), individual mice, 5 μg/ml con A): 6928.7 and 2621.3 and 11240.7 and 8041.3 and 915.3 and 1023.3 and 3308.7 and 4993.3 | Mitogenic Proliferation, PHA (lymphocytes; 30 days on CPDS diet (samples G2-1 to G2-8), individual mice, 50 μg/ml PHA): 3565.3 and 1168.0 and 2175.3 and 2300.0 and 603.3 and 717.3 and 1652.6 and 886.0 | Mitogenic Proliferation, No stimulation (lymphocytes; 30 days on CPDS diet (samples G2-1 to G2-8), individual mice, no unit in table, method: CPM): 78.0 and 69.3 and 66.7 and 82.0 and 57.3 and 72.7 and 72.0 and 58.7 | Mitogenic Proliferation, CON A, Variation(%) (lymphocytes; [1]): 210.2% | Mitogenic Proliferation, LPS, Variation(%) (lymphocytes; [1]): 82.0% | Mitogenic Proliferation, No stimulation, Variation(%) (lymphocytes; [1]): 0.2% | Mitogenic Proliferation, PHA, Variation(%) (lymphocytes; [1]): 144.4% | Mitogenic Proliferation, CON A (lymphocytes; [2]): 4984.1 ± 3641 | Mitogenic Proliferation, LPS (lymphocytes; [2]): 2627.1 ± 1475 | Mitogenic Proliferation, No stimulation (lymphocytes; [2]): 69.6 ± 8 | Mitogenic Proliferation, PHA (lymphocytes; [2]): 1633.4 ± 1010 | Mitogenic Proliferation (SI), LPS, effect of CPDS diet (lymphocytes; 30 days, n=8, arrow image = increase): tendency to increase | Mitogenic Proliferation, CON A (lymphocytes; [3]): 4441.8 ± 1733 | Mitogenic Proliferation, LPS (lymphocytes; [3]): 937.9 ± 232 | Mitogenic Proliferation, No stimulation (lymphocytes; [3]): 50.5 ± 23 | Mitogenic Proliferation, PHA (lymphocytes; [3]): 205.3 ± 74 | Mitogenic Proliferation, LPS (lymphocytes; Group 6, 6 days on CPDS diet, individual mice, 5 μg/ml LPS, no unit in table, method: CPM): 1052.0 and 670.0 and 1091.3 | Mitogenic Proliferation, CON A (lymphocytes; Group 6, 6 days on CPDS diet, individual mice, 5 μg/ml con A, no unit in table, method: CPM): 4876.7 and 2532.0 and 5916.7 | Mitogenic Proliferation, PHA (lymphocytes; Group 6, 6 days on CPDS diet, individual mice, 50 μg/ml PHA, no unit in table, method: CPM): 237.3 and 120.0 and 258.7 | Mitogenic Proliferation, No stimulation (lymphocytes; Group 6, 6 days on CPDS diet, individual mice, no unit in table, method: CPM): 78.0 and 34.7 and 38.7 | Proliferation with all three mitogens (PHA, ConA, LPS), in words (lymphocytes; after 6 days of treatment with CPDS): tendency towards an increase
